Series [1] in a line: Pharmacokinetic studies of MBZ formulations. The format is in vivo, athymic mice. The conditions noted are these: MBZ 40 mg/kg oral gavage; for lower exposure with trametinib co-administration vs. methylcellulose: 8 hours.
Series [2] in a line: Pharmacokinetic studies of MBZ formulations. Format: in vivo, athymic mice. The conditions noted are these: for mean plasma exposure at 8 hours / concentration at 8 h: MBZ 40 mg/kg oral gavage; for concentration at 8 h: athymic, mouse, plasma, oral, 40 mg/kg, read-out: mean plasma exposure at 8 hours. Here is the method:
In pharmacokinetic (PK) studies, MBZ was administered to athymic mice (described below) by oral gavage at a dose of 40 mg/kg in three different formulations (methylcellulose, oleic acid, or sesame oil/PBS) or methylcellulose in combination with cimetidine. MBZ and two metabolites, 2-Amino-5-benzoyl-1H bezimidizole (2ABB), and rac Dihydro MBZ (RDM), were quantified in mouse plasma as described in Bai et al., “Brain Penetration and Efficacy of Different Mebendazole Polymorphs in a Mouse Brain Tumor Model,” Clin. Cancer Res. 21:3462-3470 (2015)).

For series [3], the system named is BAK, BUL and STU melanoma cells. The series is described as follows: XTT cell viability assay, all three melanoma cell lines. Format: cell-based, Human. The conditions noted are these: 72 h. Here is the method:
FIGS. 2A-2C show decreased viability of melanoma cells exposed to MBZ, dabrafenib (D), trametinib (T), or combinations of T+D or MBZ+trametinib. A) BAK (BRAFWT/NRASQ61K); B) BUL (BRAFWT/NRASQ61K); and C.) STU (BRAFV600K/NRASWT) melanoma cells were exposed to the indicated concentrations of MBZ, D, T, T+D or MBZ+trametinib (T+MBZ) for 72 h, and subjected to XTT cell viability assays, as described in the Examples. Error bars represent mean±SD for triplicates. […] The results shown are based on a single experiment in triplicate; and repeated in three independent experiments with essentially the same results.
MBZ, dabrafenib, and trametinib were purchased from Sigma-Aldrich (St. Louis, Mo.) and ActiveBiochem (Maplewood, N.J.), respectively. 5×10^3 viable cells per well were plated in 96-well dishes and allowed to recover for 12 h prior to drug treatment. Cells in triplicate wells were treated for up to 72 h (based on initial time course experiments showing maximal effects at that time point) with different concentrations of trametinib, dabrafenib, or MBZ alone, or a combination of MBZ and trametinib. Negative controls were exposed to vehicle DMSO in the same volumes. Cell viability was assessed by an XTT assay, according to a manufacturer's specifications (Biotium Inc (Fremont, Calif.)). Reduced XTT was measured by absorbance at 490 nm on a PerkinElmer Victor 3 (Duluth, Ga.) plate reader. Cells exposed to detergent served as a positive control.
(Tetrazolium dyes change colour on reduction, which living cells bring about.)

Series [4] has as its system BAK (BRAFWT/NRASQ61K) melanoma xenografts. The series is described as follows: Mouse xenografting, tumor growth. The format is in vivo, athymic mice. The conditions noted are these: oral gavage; MBZ 40 mg/kg/qad, trametinib 0.1 or 3 mg/kg/qd.
Description: Athymic mice were injected with 3×10^6 BAK melanoma cells, and tumors were allowed to grow to a volume of 100 mm^3. Animals were then gavaged with vehicle emulsion control, 40 mg/kg/qad (every other day) MBZ, low dose trametinib (LDT; 0.1 mg/kg/qd (once a day)), high dose trametinib (HDT; 3 mg/kg/qd) or a combination of MBZ and LDT or HDT, A) Tumor widths and lengths were measured and volumes calculated as w2×l/2, where width is defined as the smaller of the tumor dimensions. Time 0 is the tumor volume on the first day of treatment; tumor sizes were normalized to their size at time 0 of drug treatment. B) Mice were weighed every other day and body weights (g) plotted over time. […]
Athymic 6-week old male mice (Taconic (Hudson, N.Y.)) were acclimated to the Division of Comparative Medicine at Georgetown University a week prior to xenografting. […] Tumor growth was measured with calipers, and drug treatment started when tumor volumes reached 100 mm^3, after which mice were monitored daily for drug efficacy, as well for adverse effects, including weight and behavior. […] Each tumor from each treatment group was measured on indicated days, and all tumor sizes were then normalized to their size at day 0 of drug treatment. […] The results were expressed as the mean (±SD) of tumor volume in each group.
Series [5] deals with CRAF (Homo sapiens, UniProt P04049). The series is described as follows: Affinity of MBZ for CRAF. The format is binding. From the text: MBZ interacts with VEGFR in silico and MBZ interacts with additional kinases in vitro, including BCR-ABL and BRAF. TMFS was used to show the nature of the interactions between MBZ, and VEGFR, and with BRAFWT or BRAFV600E. […] In fact these inhibitors actually enhance growth of NRASmut/BRAFWT tumors by paradoxically further activating the MAPK pathway through induced conformational changes in wild type RAF isoforms, inducing dimerization, membrane localization, and activation by RAS.

Series [6] concerns the target VEGFR2 (Homo sapiens, UniProt P35968). In words: MBZ potency towards VEGFR2 compared with BRAF (FIG. 1C). The format is biochemical.
The test system of series [7] is patient-derived metastatic melanoma cells harboring a BRAFWT/NRASQ61K mutation profile. The series is described as follows: Treatment of patient-derived metastatic melanoma cells (FIG. 7). Format: cell-based, Human. From the text:
In additional studies, patient-derived cells harboring a BRAFWT/NRASQ61K mutation profile were separated into CD133+ populations and CD133− populations.

Series [8] relates to BRAF. The series is described as follows: In-vitro kinase assay. The format is biochemical. An excerpt:
(§1) Efforts to develop drugs targeting mutant BRAF led to FDA approval of vemurafenib in 2011 and dabrafenib in 2013. […] In addition, other MAPK pathway proteins including CRAF and MEK were identified.

The test system of series [9] is MEK. In words: In-vitro kinase assay. Format: biochemical.
Description: as §1

The test system of series [10] is MEK/ERK pathway in BAK cells. The series is described as follows: Immunoblot analysis of cultured cells. The format is cell-based, Human. The conditions noted are these: 100 nM; for pMEK1/2 S217/221 phosphorylation: combination within 30 min. From the text:
FIGS. 5A-H are RPPA (A) and immunoblot (B-E) analyses that reveal suppression of the MAPK pathway, including ERK and its downstream substrates in melanoma cells exposed to MBZ+trametinib. A. […] Cell extracts derived at indicated times were subjected to RPPA analysis, and unsupervised hierarchal clustering was used to generate a heat map as described in Materials and Methods. […] F)-H) Immunoblot experiments were repeated with an additional melanoma cell line BUL, which harbors the same NRASQ61K mutation. […] All immunoblots were then reprobed with GAPDH as loading control. SDS-PAGE and transfer of separated proteins to nitrocellulose membranes were performed according to standard procedures. Membranes were stained with Ponceau S (0.1%) to verify equal loading and transfer of proteins, and then incubated with antibodies specific for pERK1/2 T202/Y204, pMEK1/2 S217/221, pBAD S-112, total BAD, total ERK1/2, total MEK1/2, BCL2 (Santa Cruz Biotech), BCLXL (Santa Cruz Biotech (Santa Cruz, Calif.)), cleaved PARP (Cell Signaling (Danvers, Mass.)), or GAPDH (Abeam (Cambridge, UK); loading control). Immune complexes were detected by incubation with appropriate horseradish peroxidase-conjugated antibodies to mouse or rabbit IgG (1:3000) and enhanced chemiluminescence (Pierce, Rockford, Ill.).

In series [11] the test system is BAK (BRAFWT/NRASQ61K) melanoma cells. In words: XTT cell viability assay. The format is cell-based. The conditions noted are these: Homo sapiens; cultured NRAS cells, FIG. 2A; read-out: IC80 (equivalent to patient mean peak plasma concentration).
Description: MBZ, dabrafenib, and trametinib were purchased from Sigma-Aldrich (St. Louis, Mo.) and ActiveBiochem (Maplewood, N.J.), respectively. […] Cell viability was assessed by an XTT assay, according to a manufacturer's specifications (Biotium Inc (Fremont, Calif.)). Reduced XTT was measured by absorbance at 490 nm on a PerkinElmer Victor 3 (Duluth, Ga.) plate reader. […]
The results shown are based on a single experiment in triplicate, and repeated in three independent experiments with essentially the same results. […] For determining synergism, the combination index (τ) was calculated from single dose-response curves and combination experiments as τ=xA/XA+xB/XB, in which, for a given cytotoxic effect, xA and xB are the concentrations of drugs A and B in the combination, and XA and XB are the concentrations of drugs A and B that achieve the same cytotoxic effect when given alone. […]
Series [12] addresses BRAFWT (Homo sapiens, UniProt P15056). The series is described as follows: In-vitro binding affinity of MBZ (FIG. 1C).
Description: as §1

Series [13] has as its target BRAFV600E (Homo sapiens, UniProt P15056, V600E). In words: In-vitro binding affinity of MBZ (FIG. 1C).
Description: as §1

For series [14] the following is noted: 10 mg/kg/day, chronic MBZ; cited from earlier work.
The subject of series [15] is MEK/ERK pathway in BAK NRASQ61K melanoma cells. The series is described as follows: Reverse-phase protein array (RPPA). The format is cell-based, Human. The conditions noted are these: 10 nM or 100 nM; 1, 8 or 24 h.
Description: Cell lysates were analyzed by reverse-phase protein array (RPPA). Samples were diluted to 0.5 mg/mL and dilutions printed on slides in triplicate. Slides were immunostained with 137 different antibodies specific for total proteins, or phosphorylated or cleaved products. […] Intensity values were normalized to that of total protein for each sample stained with Sypro Ruby (Invitrogen Carlsbad, Calif.)). Unsupervised cluster analysis http://www.hiv.1an1.ov/content/sequence/HEATMAP/heatmap.html was performed for all proteins in the RPPA using the standard bootstrap method.
Given the potential changes in tumor cell signaling and survival over the long time course of the xenografts, potential mechanisms by which MBZ+trametinib exerts its cytotoxic effects were examined using cultured BAK NRASQ61K melanoma cells. Cells were exposed to MBZ (10 nM or 100 nM), trametinib (10 nM or 100 nM), or a combination of the two for 1, 8, or 24 h, after which cell extracts were subjected to reverse-phase protein array (RPPA) analysis.
The subject of series [16] is MEK1/2 and ERK1/2 phosphorylation. The series is described as follows: Immunoblot analysis of xenograft tumor extracts. Format: in vivo, athymic mice. The conditions noted are these: tumors collected at termination of experiment; combination is HDT+MBZ. Here is the method: Athymic mice were injected with 3×10^6 BAK melanoma cells, and tumors were allowed to grow to a volume of 100 mm^3. […] Time 0 is the tumor volume on the first day of treatment; tumor sizes were normalized to their size at time 0 of drug treatment. B) Mice were weighed every other day and body weights (g) plotted over time. Data from four experiments were combined for statistical analysis, to compare every mouse from each treatment group. The total mice for all experiments included vehicle control (n=13), LDT (n=12), MBZ (n=12), HDT (n=12), LDT+MBZ (n=12), and HDT+MBZ (n=15). The results are shown as the mean (+SD) of tumor volume in each group. C) and D) ERK and MEK phosphorylation was suppressed in large (C) or small (D) tumor xenografts from mice treated with T+MBZ. Tumor extracts were derived from xenografts, then subjected to immunoblot analysis using antibodies specific for total BRAT, phospho-BRAF, ERK1/2, phospho-ERK1/2, total MEK1/2, phospho-MEK1/2, or GAPDH as a loading control. SDS-PAGE and transfer of separated proteins to nitrocellulose membranes were performed according to standard procedures. […] Immune complexes were detected by incubation with appropriate horseradish peroxidase-conjugated antibodies to mouse or rabbit IgG (1:3000) and enhanced chemiluminescence (Pierce, Rockford, Ill.).
In general terms: A western blot detects proteins with antibodies after separation by electrophoresis.

Like-named read-outs stand apart in the source and are kept apart here.

What is called Kd is the concentration at which binding is half-saturated.

CRAF, sequence (P04049 whole entry, canonical isoform): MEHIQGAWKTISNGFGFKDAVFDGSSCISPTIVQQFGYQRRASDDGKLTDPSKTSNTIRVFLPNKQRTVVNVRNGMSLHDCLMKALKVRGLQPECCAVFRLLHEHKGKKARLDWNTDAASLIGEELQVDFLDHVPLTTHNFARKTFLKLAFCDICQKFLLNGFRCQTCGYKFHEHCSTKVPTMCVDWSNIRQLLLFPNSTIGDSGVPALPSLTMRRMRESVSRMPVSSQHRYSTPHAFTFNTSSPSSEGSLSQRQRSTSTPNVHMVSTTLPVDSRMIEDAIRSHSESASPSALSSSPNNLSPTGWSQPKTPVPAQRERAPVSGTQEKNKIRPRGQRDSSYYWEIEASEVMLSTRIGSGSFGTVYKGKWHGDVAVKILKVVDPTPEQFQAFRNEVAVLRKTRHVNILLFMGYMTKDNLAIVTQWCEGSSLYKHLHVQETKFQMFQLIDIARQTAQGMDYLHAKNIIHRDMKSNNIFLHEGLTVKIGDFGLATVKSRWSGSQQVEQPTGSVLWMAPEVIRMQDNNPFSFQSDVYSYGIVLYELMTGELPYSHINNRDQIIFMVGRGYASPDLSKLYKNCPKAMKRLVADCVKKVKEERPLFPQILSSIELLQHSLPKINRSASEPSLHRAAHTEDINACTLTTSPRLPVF
BRAFV600E, sequence (P15056 whole entry V600E): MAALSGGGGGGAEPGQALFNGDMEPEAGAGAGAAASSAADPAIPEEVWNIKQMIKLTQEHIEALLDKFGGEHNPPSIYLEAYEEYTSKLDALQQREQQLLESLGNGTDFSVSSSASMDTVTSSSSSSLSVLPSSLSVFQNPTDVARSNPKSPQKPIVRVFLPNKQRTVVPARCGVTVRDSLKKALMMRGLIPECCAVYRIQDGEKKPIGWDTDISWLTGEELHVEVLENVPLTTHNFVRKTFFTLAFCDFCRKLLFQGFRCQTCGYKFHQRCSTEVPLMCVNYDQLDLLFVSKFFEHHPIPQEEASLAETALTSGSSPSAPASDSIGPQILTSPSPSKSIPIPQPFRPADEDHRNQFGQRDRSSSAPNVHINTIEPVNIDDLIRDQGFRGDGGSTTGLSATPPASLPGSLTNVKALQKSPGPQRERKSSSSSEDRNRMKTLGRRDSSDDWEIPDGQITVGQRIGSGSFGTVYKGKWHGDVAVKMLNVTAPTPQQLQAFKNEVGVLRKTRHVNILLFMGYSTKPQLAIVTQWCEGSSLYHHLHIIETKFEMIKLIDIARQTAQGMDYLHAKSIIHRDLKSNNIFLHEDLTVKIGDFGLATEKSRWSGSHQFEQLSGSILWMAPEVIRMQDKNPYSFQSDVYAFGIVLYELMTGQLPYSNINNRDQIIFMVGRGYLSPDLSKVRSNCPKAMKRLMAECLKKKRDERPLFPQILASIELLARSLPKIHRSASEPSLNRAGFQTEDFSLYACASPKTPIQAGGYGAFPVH
VEGFR2, sequence (P35968 20-1356): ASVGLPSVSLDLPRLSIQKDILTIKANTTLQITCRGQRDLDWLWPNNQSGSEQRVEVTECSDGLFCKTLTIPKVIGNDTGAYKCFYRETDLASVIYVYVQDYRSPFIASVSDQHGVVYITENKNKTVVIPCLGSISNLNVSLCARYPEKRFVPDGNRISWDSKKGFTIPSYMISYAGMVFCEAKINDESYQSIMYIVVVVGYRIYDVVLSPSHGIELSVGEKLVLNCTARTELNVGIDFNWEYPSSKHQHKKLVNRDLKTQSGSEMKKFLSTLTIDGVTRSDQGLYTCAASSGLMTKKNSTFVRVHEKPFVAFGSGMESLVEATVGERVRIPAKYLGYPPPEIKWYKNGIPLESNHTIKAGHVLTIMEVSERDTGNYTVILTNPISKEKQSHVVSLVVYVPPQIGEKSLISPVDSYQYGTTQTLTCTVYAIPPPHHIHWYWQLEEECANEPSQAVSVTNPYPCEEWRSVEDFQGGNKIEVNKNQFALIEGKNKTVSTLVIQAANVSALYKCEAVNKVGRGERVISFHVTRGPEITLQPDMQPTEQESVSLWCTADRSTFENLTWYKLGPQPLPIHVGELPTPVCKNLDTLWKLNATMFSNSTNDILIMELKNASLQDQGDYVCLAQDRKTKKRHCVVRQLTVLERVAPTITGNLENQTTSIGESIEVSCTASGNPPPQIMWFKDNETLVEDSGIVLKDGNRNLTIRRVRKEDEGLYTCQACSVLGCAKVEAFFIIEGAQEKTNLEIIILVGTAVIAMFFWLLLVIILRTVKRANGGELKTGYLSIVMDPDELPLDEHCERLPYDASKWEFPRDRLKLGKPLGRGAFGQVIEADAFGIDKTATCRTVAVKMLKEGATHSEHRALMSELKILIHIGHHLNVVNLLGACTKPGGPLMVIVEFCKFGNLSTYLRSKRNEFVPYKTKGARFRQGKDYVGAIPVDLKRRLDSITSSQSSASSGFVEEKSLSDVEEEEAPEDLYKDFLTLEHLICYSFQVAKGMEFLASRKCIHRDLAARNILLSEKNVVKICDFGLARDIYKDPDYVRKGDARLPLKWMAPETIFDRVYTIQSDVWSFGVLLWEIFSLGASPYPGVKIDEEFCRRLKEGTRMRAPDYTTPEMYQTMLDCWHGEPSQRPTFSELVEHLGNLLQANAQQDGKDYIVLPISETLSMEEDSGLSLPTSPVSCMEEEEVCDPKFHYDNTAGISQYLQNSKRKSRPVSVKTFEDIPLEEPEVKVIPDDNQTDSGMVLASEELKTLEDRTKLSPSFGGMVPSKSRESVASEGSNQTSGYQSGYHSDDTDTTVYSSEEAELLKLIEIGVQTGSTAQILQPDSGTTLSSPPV
BRAFWT, sequence (P15056 whole entry): as the sequence (P15056 whole entry V600E) above, with E600V counted along it

With `COC(=O)Nc1nc2ccc(C(O)c3ccccc3)cc2[nH]1` (racemic) [RDM, rac Dihydro MBZ], the “lower exposure with trametinib co-administration vs. methylcellulose” value in series [1] is reported as “did not alter”. For the same molecule, the “mean plasma exposure at 8 hours” value in [2] (methylcellulose formulation) worked out at 57 ng/mL; in series [2] (oleic acid formulation), 543 ng/mL.
As for `Nc1nc2cc(C(=O)c3ccccc3)ccc2[nH]1` [2ABB, 2-Amino-5-benzoyl-1H bezimidizole], the “lower exposure with trametinib co-administration vs. methylcellulose” value in series [1] is on record as about 45%. Moreover, the “mean plasma exposure at 8 hours” value worked out at 242 ng/mL in series [1] (trametinib co-administration), 425 ng/mL in series [2] (methylcellulose formulation) and 427 ng/mL in series [2] (oleic acid formulation).
In the case of `COC(=O)Nc1nc2ccc(C(=O)c3ccccc3)cc2[nH]1` [MBZ, methyl N-[6-(benzoyl)-1H-benzimidazol-2-yl] carbamate], the “cytotoxicity as single agent” value in [3] is “weak cytotoxic activity”. In addition, the “concentration at which significant growth inhibition was observed” value in series [3] (2-way ANOVA) is at least 10 nM. For the same molecule, the tumor growth entry in [4] is reported as “did not work as a monotherapy”. The “affinity for CRAF” value in series [5] is given as “very low affinity”. In [6], the “potency towards BRAF versus VEGFR2” value is “more potency towards BRAF”. Further, in [7], the sensitivity to treatment result is “sensitivity”. The “inhibition of kinase activity by MBZ” value in series [8] and in [9] was “nM range” throughout. In addition, in [10] (combination undetectable by 30 min), the “ERK1/2 (T202/Y204) phosphorylation” value is “diminished”. Besides, in series [10], the “pMEK1/2 S217/221 phosphorylation” value is on record as “not inhibited”. In [11], the IC80 is about 470 nM. For the same molecule, the results for the Kd in [12] and in series [13] were 230 nM and 210 nM, respectively. In addition, the “mean peak plasma level” value in series [14] was 470 nM. The “peak plasma level, variability between patients” value in [14] is 0.34 to 1.69 µM. Moreover, the “phosphorylation of proteins associated with the MEK/ERK pathway” value in series [15] was “down-regulated”. Moreover, the “MEK1/2 and ERK1/2 phosphorylation in tumors” value in series [16] is “suppress MEK and ERK phosphorylation”. For the same molecule, the “lower exposure with trametinib co-administration vs. methylcellulose” value in [1] is reported as “did not alter”. For the same molecule, the concentration at 8 h is 473 ng/mL in series [2] (methylcellulose formulation) and 1390 ng/mL in [2] (oleic acid formulation). Besides, the “difference in exposure between formulations or combinations” value in series [2] (one hour, P>0.05 Kruskal-Wallis) is “no difference”.
For `CC(C)(C)c1nc(-c2cccc(NS(=O)(=O)c3c(F)cccc3F)c2F)c(-c2ccnc(N)n2)s1` [dabrafenib], the “cytotoxicity as single agent” value in series [3] is reported as “resistance”.
Turning to `CC(=O)Nc1cccc(-n2c(=O)n(C3CC3)c(=O)c3c(Nc4ccc(I)cc4F)n(C)c(=O)c(C)c32)c1` [trametinib], the “pMEK1/2 S217/221 phosphorylation” value in series [10] is “not inhibited”.

Source of the values: US11179395B2, “Treating melanoma with mebendazole and a mitogen-activated kinase inhibitor” (GEORGETOWN UNIVERSITY, priority 2017, dated 2021).
